Key:
[1] = target: T1, ENL YEATS domain (association with H3K27cr) (Homo sapiens, UniProt Q03111); assay: biochemical; settings: ENL (YEATS)-H3K27cr HTRF (IC50, μM)
T1 sequence (Q03111 1-148): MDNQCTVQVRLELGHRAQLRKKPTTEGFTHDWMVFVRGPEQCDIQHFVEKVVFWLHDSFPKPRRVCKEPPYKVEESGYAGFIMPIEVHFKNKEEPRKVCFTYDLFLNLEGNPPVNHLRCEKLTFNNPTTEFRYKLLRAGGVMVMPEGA
Experimental: (§1) Protein Production. Double stranded DNA fragments encoding the protein sequence of ENL YEATS(1-148) were synthesized (IDT DNA) for assembly-based cloning into a modified expression vector backbone derived from pET21a (Novagen). The protein was fused to a StrepII-SUMO and 6×His tag on the amino and carboxy terminus, respectively. Transformed BL21(DE3) cells (New England Biolabs) were grown at 37° C. in 2×YT growth medium to an OD600 of 0.6. Protein expression was induced at 25° C. with the addition of isopropyl-β-D-thiogalactopyranoside (IPTG) to a final concentration of 0.4 mM. The culture was harvested by centrifugation following a 20-hour incubation and subsequently purified by immobilized metal affinity chromatography. Cells were resuspended 50 mM Tris-HCl pH 8.0, 300 mM NaCl, 10% glycerol, 10 mM imidazole, 1 mM DTT containing Complete EDTA-free protease inhibitor (Roche) and lysed by two passes through a MicroFluidizer at 10,000 psi. The lysate was clarified by centrifugation at 16,000 rpm for 30 minutes at 4° C. The supernatant was passed over NiNTA agarose (QIAGEN) and the protein was eluted in 50 mM Tris-HCl pH 8.0, 300 mM NaCl, 10% glycerol, 250 mM imidazole, 1 mM DTT. Fractions containing the ENL YEATS(1-148) fusion protein were buffer exchanged into 100 mM Tris-HCl pH 8.0, 150 mM NaCl, 1 mM EDTA, 1 mM DTT using PD10 desalting columns (GE Life Sciences). Ulp1 protease was added to cleave the StrepII-SUMO fusion and the reaction mixture was incubated overnight at 4° C. The cleavage reaction mixture was loaded onto a StrepTrap column (GE Life Sciences) and ENL YEATS(1-148) was recovered in the flow through. BRD4 BD1 was purchased from Cayman (Cat. No. 11720).
(§2) Homogenous time-resolved FRET (HTRF) histone-binding assays. Both HTRF assays were performed by combining recombinant protein and synthetic histone peptide in assay buffer (25 mM HEPES pH 7, 20 mM NaCl, 0.2% Pluronic F-127, and 0.05% BSA) with 1 nM LanthaScreen Eu-anti-His Tag antibody (ThermoFisher, Cat. No, PV5597) and 8.9 nM SureLight allophycocyanin-streptavidin (Perkin Elmer, APC-SA, Cat. No. CR130-100). ENL YEATS was used at 5 nM and BRD4 BD1 was used at 10 nM. ENL assays were performed with H3(13-32)K27cr (13.3 and 100 nM, respectively), custom synthesized at ABclonal (N-terminal biotin, C-terminal amide); BRD4 BD1 assay was performed with 13.3 nM tetra-acetylated H4 (BioVision, Cat. No. 7144-01). Once all reagents were combined (with or without peptide), 10 μL was dispensed per well into black 384-well low-volume plates (Corning, Cat. No. 3821) and drug was added by pin tool transfer (Biomek FX). Assays were incubated for 2 or more hours before measurement of HTRF signal on a PHERAstar plate reader (BMG Labtech; simultaneous dual emission; excitation=337 nm, emission 1=665 nm, emission 2=620 nm). HTRF signal (ratio of emission 1 to emission 2) from vehicle-treated wells (maximum signal) and no-peptide-control wells (minimum signal) were used to calculate percent inhibition for drug-treated wells.

[2] = target: T2, ENL(YEATS)-HiBiT (Homo sapiens, UniProt Q03111); assay: cell-based
T2 sequence (Q03111 1-138 limits assumed): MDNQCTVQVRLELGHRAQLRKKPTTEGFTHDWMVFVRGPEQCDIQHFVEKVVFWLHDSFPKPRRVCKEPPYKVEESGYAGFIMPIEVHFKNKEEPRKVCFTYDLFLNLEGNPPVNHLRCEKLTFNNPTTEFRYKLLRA
Experimental: Cellular thermal shift assay (CETSA). […] Cells were transferred to 384-well (20,000 cells per well in 20 μL) or 1,536-well (3,000 cells per well in 4 μL) plates and drug was transferred using a 100 nL pin tool for 384-well plates or acoustic transfer (Labcyte, Echo Liquid Handler) for 1,536-well plates. Luminescent detection of HiBiT was performed by combining an equal volume of Nano-Glo HiBiT Lytic Reagent (Promega, HiBiT Lytic Detection System, Cat. No. N3040) in each well. […] Briefly, cells were treated with drug, washed with PBS, heated to various temperatures in a thermocycler, cooled to room temperature, lysed by three rounds of freeze-thaw, and then clarified lystaes were subjected to immunoblot analysis.

[3] = target: T3, BRD4 bromodomain 1 (BD1) (Homo sapiens, UniProt O60885); assay: BRD4 (BD1)-H4 tetra-acetylated HTRF histone-binding assay
T3 construct: Selectivity against BRD4 bromodomain 1 (BD1), measured by HTRF; His; purchased Cayman 11720
Experimental: as §1, §2

IC50 ([1]; Table 1)	IC50 ([1]; Table 2)	IC50 [2]	IC50 ([3]; Table 1)	IC50 ([3]; Table 2)	SMILES
2.9 µM	2.9 µM	80 µM	> 50 µM	> 50 µM	CC(C)NC(=O)c1ccc2nc(-c3ccc(C#N)cc3)cn2c1 [Compound 4]
4.5 µM	4.5 µM	80 µM	> 50 µM	> 50 µM	CC(C)NC(=O)c1ccc2nc(-c3cccc(C#N)c3)cn2c1 [Compound 18]
61 µM	61 µM	22 µM			CO[C@@H]1CC[C@H]1NC(=O)c1ccc2nc(-c3ccccc3)cn2c1 [Compound 126]
33 µM	33 µM	80 µM	> 50 µM	> 50 µM	Cc1ccccc1-c1cn2cc(C(=O)NC(C)C)ccc2n1 [Compound 26]
12 µM	12 µM	80 µM	> 50 µM	> 50 µM	CC(NC(=O)c1ccc2nc(-c3ccccc3)cn2c1)c1ccncc1 (centres unmarked) [Compound 24]
20 µM	20 µM	80 µM	> 50 µM	> 50 µM	O=C(NC1CCCC(O)C1)c1ccc2nc(-c3ccccc3)cn2c1 (centres unmarked) [Compound 16]
13 µM	13 µM	23 µM			COC[C@@H]1CC[C@H]1NC(=O)c1ccc2nc(-c3ccccc3)cn2c1 [Compound 121]
24 µM	24 µM	80 µM	> 50 µM	> 50 µM	COc1cccc(-c2cn3cc(C(=O)NC(C)C)ccc3n2)c1 [Compound 20]
4.8 µM	4.8 µM	80 µM	> 50 µM	> 50 µM	Cc1cccc(-c2cn3cc(C(=O)NC(C)C)ccc3n2)c1 [Compound 17]
21 µM	21 µM	56 µM			O=C(N[C@@H]1CC[C@H]1O)c1ccc2nc(-c3ccccc3)cn2c1 [Compound 124]
1.17 µM	1.17 µM	5.52 µM			Cc1ccc(-c2cn3cc(C(=O)NC4CCC4)ccc3n2)cc1 [Compound 71]
2.6 µM	2.6 µM	80 µM	> 50 µM	> 50 µM	Cc1ccc(-c2cn3cc(C(=O)NC(C)C)ccc3n2)cc1 [Compound 14]
0.506 µM	0.506 µM	4.04 µM	> 50 µM	> 50 µM	O=C(NC1CCC1)c1ccc2nc(-c3ccccc3)cn2c1 [Compound 15]
4.1 µM	4.1 µM	62 µM	> 50 µM	> 50 µM	CC(C)NC(=O)c1ccc2nc(-c3ccncc3)cn2c1 [Compound 5]
0.206 µM	0.206 µM	2.8 µM			O=C(NC1CCC1)c1ccc2nc(-c3cccc(NS(=O)(=O)NCCN4CCC(F)(F)CC4)c3)cn2c1 [Compound 97]
0.12 µM	0.12 µM	8.5 µM	> 50 µM	> 50 µM	CC(C)NC(=O)c1ccc2nc(-c3cccc(NS(=O)(=O)NCCc4c[nH]cn4)c3)cn2c1 [Compound 46]
0.05 µM	0.05 µM	0.742 µM			O=C(NC1CCC1)c1ccc2nc(-c3cccc(NS(=O)(=O)NCCN4CCC(O)CC4)c3)cn2c1 [Compound 99]
0.243 µM	0.243 µM	6.14 µM			O=C(O)COC1CCN(CCC(=O)Nc2cccc(-c3cn4cc(C(=O)NC5CCC5)ccc4n3)c2)CC1 [Compound 111]
0.101 µM	0.101 µM	12 µM			O=C(NC1CCC1)c1ccc2nc(-c3cccc(NS(=O)(=O)NCC(=O)N4CCCCC4)c3)cn2c1 [Compound 98]

IC50 ([1]; Table 1)	IC50 ([1]; Table 2)	IC50 [2]	IC50 ([3]; Table 1)	IC50 ([3]; Table 2)	SMILES
36 µM	36 µM	35 µM			O=C(NC1CCC1O)c1ccc2nc(-c3ccccc3)cn2c1 (centres unmarked) [Compound 116]
6 µM	6 µM	19 µM			C#C[C@H]1C[C@@H](NC(=O)c2ccc3nc(-c4ccccc4)cn3c2)C1 [Compound 122]
58 µM	58 µM	32 µM			COC[C@@H]1CC[C@@H]1NC(=O)c1ccc2nc(-c3ccccc3)cn2c1 [Compound 127]
> 50 µM	> 50 µM	27.3 µM			O=C(NC1COC1)c1ccc2nc(-c3ccccc3)cn2c1 [Compound 70]
0.723 µM	0.723 µM	7 µM			O=C(NC1CC2(CC2)C1)c1ccc2nc(-c3ccccc3)cn2c1 [Compound 118]
3.27 µM	3.27 µM	7.88 µM			COc1ccc(-c2cn3cc(C(=O)NC4CCC4)ccc3n2)cc1 [Compound 78]
21.3 µM	21.3 µM	25.6 µM			O=C(NC1CC(CO)C1)c1ccc2nc(-c3ccccc3)cn2c1 (centres unmarked) [Compound 85]
2.29 µM	2.29 µM	8.9 µM			O=C(N[C@@H]1CCc2ccccc21)c1ccc2nc(-c3ccccc3)cn2c1 [Compound 74]
0.55 µM	0.55 µM		> 50 µM	> 50 µM	CC(C)NC(=O)c1ccc2nc(-c3cccc(NS(=O)(=O)NCCCN4CCOCC4)c3)cn2c1 [Compound 45]
1.02 µM	1.02 µM		> 50 µM	> 50 µM	CC(C)NC(=O)c1ccc2nc(-c3cccc(NS(=O)(=O)NCc4ccc(F)cc4)c3)cn2c1 [Compound 51]
7.8 µM	7.8 µM		> 50 µM	> 50 µM	CC(C)NC(=O)c1ccc2nc(-c3ccc(N)cc3)cn2c1 [Compound 39]
10 µM	10 µM	19 µM			C#CC1CC(NC(=O)c2ccc3nc(-c4ccccc4)cn3c2)C1 (centres unmarked) [Compound 117]
> 50 µM	> 50 µM	35.4 µM			O=C(NC1CC(O)C1)c1ccc2nc(-c3ccccc3)cn2c1 (centres unmarked) [Compound 76]
3.7 µM	3.7 µM		> 50 µM	> 50 µM	CC(C)NC(=O)c1ccc2nc(-c3cccc([N+](=O)[O-])c3)cn2c1 [Compound 36]
0.163 µM	0.163 µM	7.75 µM			CC1CCCCN1CCNS(=O)(=O)Nc1cccc(-c2cn3cc(C(=O)NC4CCC4)ccc3n2)c1 (centres unmarked) [Compound 96]
0.55 µM	0.55 µM		> 50 µM	> 50 µM	CC(C)NC(=O)c1ccc2nc(-c3cccc(NS(=O)(=O)NCCCCCC#N)c3)cn2c1 [Compound 59]
0.69 µM	0.69 µM		> 50 µM	> 50 µM	CC(C)NC(=O)c1ccc2nc(-c3cccc(NS(=O)(=O)NCCCC(=O)O)c3)cn2c1 [Compound 60]
1.3 µM	1.3 µM	2.51 µM			N#Cc1ccc(-c2cn3cc(C(=O)NC4CCC4)ccc3n2)cc1 [Compound 86]
10.7 µM	10.7 µM		> 50 µM	> 50 µM	CC(C)NC(=O)c1ccc2nc(-c3cccc(N)c3)cn2c1 [Compound 38]
